Assay results published in patent US20050070496A1, “Semi-solid formulations for the oral administration of taxoids” (Aventis Pharma S. A., priority 2003, published 2005).
Marks after values point to notes of the source that are not given here.

Columns and labels:
[1] = Solubility of taxoid of formula Ib in liquid excipients; format: physicochemical
Text: After a first selection of proper excipients (in terms of safety and developability), the solubility of taxoids in the excipient was the first screening step for the choice of the excipient and the selection of the prototypes. Then, the prototypes (liquid or semi-solid) were manufactured, and characterized in terms of in vitro behavior in simulated GI media and chemical stability. Finally, the physical properties and stability of the semi-solid prototypes have been investigated.

[2] = Solubility in semi-solid excipients (at the melted state) and solid excipients
Text: The solubility of taxoid of formula Ib at room temperature has been determined by X ray diffraction.

SMILES: CC(=O)O[C@H]1C(=O)[C@]23C[C@H]2C[C@H]2OC[C@@]2(OC(C)=O)[C@H]3[C@H](OC(=O)c2ccccc2)[C@]2(O)C[C@H](OC(=O)[C@H](O)[C@@H](NC(=O)OC(C)(C)C)c3ccccc3)C(C)=C1C2(C)C [taxoid of formula Ib]
- Solubility ([1]; in Capryol 90 (Polyethylene glycol monocaprylate)): 281 mg/g
- Solubility ([1]; in Cremophor EL (POE hydrogenated castor oil)): 94 mg/g
- Solubility ([1]; in Crossential O94 (Oleic acid)): 37 mg/g
- Solubility ([1]; in Edenor C8 98-100 (Caprylic acid)): 138 mg/g
- Solubility ([1]; in Ethanol): 250 mg/g
- Solubility ([1]; in HPβ cyclodextrin): 0.28 mg/g
- Solubility ([1]; in Labrafil M1944 CS (oleyl macrogol-6-glycerides)): 52 mg/g
- Solubility ([1]; in Labrasol (Caprylocaproyl macrogol-8 glycerides)): 244 mg/g
- Solubility ([1]; in Lauroglycol 129 (PG monolaurate)): 129 mg/g
- Solubility ([1]; in Maisine 35-1 (Glyceryl linoleate)): 129 mg/g
- Solubility ([1]; in Miglyol 812N (caprylic/capric triglyceride)): 65 mg/g
- Solubility ([1]; in PEG 400 (polyethylene glycol 400)): 121 mg/g
- Solubility ([1]; in PS 80 VG (POE monooleate)): 144 mg/g
- Solubility ([1]; in PS 80 VG pH 6 (POE monooleate)): 135 mg/g
- Solubility ([1]; in Peceol (Glyceryl monooleate)): 106 mg/g
- Solubility ([1]; in Phosal 50 PG (Phosphatidylcholine ≧ 50% in propylene glycol)): 27 mg/g
- Solubility ([1]; in Phosal 50 SA (Phosphatidylcholine 50 ± 3% in alcohol, safflower oil, glyceryl stearate, coconut oil and ascorbyl palmitate)): 97 mg/g
- Solubility ([1]; in Phosal 75 SA (Phosphatidylcholine 75 ± 3% in alcohol, safflower oil, glyceryl stearate, coconut oil and ascorbyl palmitate)): 122 mg/g
- Solubility ([1]; in Plurol diisostearic): 23 mg/g
- Solubility ([1]; in Plurol oleic CC497 (Polyglyceryl 6 oleate)): 42 mg/g
- Solubility ([1]; in Soybean oil (glycerides, linoleic acid 50-57%)): 16 mg/g
- Solubility ([1]; in Transcutol (Diethylene glycol monoethyl ether)): 197 mg/g
- Solubility ([2]; in Gelucire 44/14 (lauroyl macrogol-32 glycerides), excipient melted up to 70° C.): 96 mg/g
- Solubility ([2]; in Imwitor 988 (Glyceryl mono-dicaprylate), semi-solid excipient melted up to 70° C.): 283 mg/g
- Solubility ([2]; in Myrj 45 (POE stearate), excipient melted up to 70° C.): 128 mg/g
- Solubility ([2]; in PEG 4000 (polyethylene glycol 1500), excipient melted up to 70° C.): >50* mg/g
- Solubility ([2]; in Vitamin E TPGS (α-tocopherol PEG succinate), excipient melted up to 70° C.): 73 mg/g
